This is an account of results in patent US20260273076A1, “PHARMACEUTICAL COMPOSITIONS AND METHOD OF TREATMENT OF METASTATIC AND OTHER CANCERS” (Favorite Pharmaceuticals, priority 2023, published 2026).

Where two headings read alike, the source gives them in different places.

In experiment [1] the test system is PDX derived cell line models (pancreatic cancer patients) in co-culture with human dermal fibroblasts. As to the kind of experiment: Cypre 3D Oncology in vitro patient-derived xenograft (PDX) Panel (Example 11). To be noted: treated four days, 5 patients. The format is cell-based. How it is done: In this example, a Cypre PDX assay was carried out in 5 different pancreatic cancer patients using 5 test compounds. […] The endpoint from this assay was tumor size and DRAQ7 staining.
PDX Tumor cells were expanded in 2D cell culture and then grown in 3D hydrogels, co-embedded with human dermal fibroblasts (HDF). […] After, 3D assays were stained with Hoechst and DRAQ7, fixed, and analyzed using a high content imager and proprietary image analysis software.
In general terms: Xenograft models place foreign cells or tissue in a host animal.

The next experiment relates to HCT-116 spheroids. Kind of experiment: HCT-116 spheroid viability / mitochondrial staining, high-content imaging (Example 1). The format is cell-based. To be noted: 72 hours. How it is done:
Monolaurin was also similarly compared as a non-pegylated Lauric acid control.
HCT-116 cells were cultured according to ATCC guidelines and spheroids containing the cells were incubated in plate maps. […] After 72 hours of incubation, the images were taken at 10× with a 25-step z-stack in […] on a Molecular Devices imager.
On the day of dosing, C12 (C12=C12-Ether-PEG-1000), C-18 (C18=C18-amide-PEG-1000) and monolaurin were reconstituted in DMSO to make stock solutions of 60 mM. Lauric Acid and Polyethylene Glycol were also reconstituted in DMSO to make stock solutions of 120 mM. C-12, C-18 and monolaurin stock solutions were then serially diluted at half-log steps in DMSO and then diluted 100× in maintenance media. Lauric Acid and monomethoxy polyethylene glycol MW 1000 (PEG) were serially diluted in DMSO and then diluted 200× in maintenance media. Dosing done according to manufacturer's protocol.
DMSO concentrations were kept consistent across all wells at 0.5%. Following dosing, Plate 1 & 2 were incubated in a 37° C., 5% CO2 incubator for 72 hours. Plate 1 was removed from incubation between 60 and 180 min timepoints for imaging. Well A05 in Plate 1 was imaged in bright field at 10× while incubated in the imager at 37° C. Images were taken at 5-minute intervals for 120 mins. Following imaging, Plate 1 was immediately placed back into 37° C., 5% C02 incubator. […]

Experiment [2] concerns human pancreatic cancer (BX PC3) cells. To be noted: 200 micromolar, 24 hours.
The test system of experiment [3] is human pancreatic cancer (BXPC3) cells. How it is done:
In this example, human pancreatic cancer (BXPC3) cells were grown on microscope slides for 24 hours prior to administration of test articles. […] Imaging was at 10× with photographs taken once every five minutes.
The timeline proceeds from left to right.

A further experiment deals with BXPC3 cells. The source says:
Molecular crowding occurs when high concentrations of macromolecules reduce the volume of solvent available for other molecules in the solution, effecting the properties of cellular water. […] An increase in dry mass on addition of drug to the cells reflects uptake of the conjugate into the intracellular space. […] The method has been used to evaluate a dose response relationship and the characteristic response patterns of specific cell types to selected polyethylene glycol fatty acid conjugated structures.

Experiment [4] concerns A549, HL-60, Raji B, Panc-1, and PC3 cancer cell lines. The conditions noted are these: 4-5 h period, 5 cell lines.
The subject of another experiment is HCT-116 cells. The conditions noted are these: HCT-116 2-D, 72 hours. How it is done: Cells were incubated for 72 hours in a 37° C./5% CO2 incubator. […] At the conclusion of the 72-hour timepoint, cells were labeled with 6 μL/mL MitoTracker Deep Red and 1:250 Viability Dye.
Following labeling, cells were fixed in 10% neutral buffer formalin and permeabilized with 0.2% Triton X-100 in 1×PBS. Cells were then labeled with 1:500 Hoechst 33342 Ready Flow™ Reagent And 5 μL/mL Alexa Fluor 488 phalloidin.
Cells were then imaged at 20× widefield using a Molecular Devices ImageXpress Micro Confocal High-Content imaging platform. The scan laser/dichromic settings were tuned for 405, 488, 647, and 730 nm excitation wavelengths. Images were acquired and saved as 16-bit 2048×2048 TIF files for further processing. A grid of the sites at well centers was acquired during image capture.
The images were then analyzed using nuclear, phalloidin, and MitoTracker Channels. The number of cells was determined for each. Viable and non-viable cells were determined using colocalization of the nuclear channel and the viability dye images after thresholding. Phalloidin and MitoTracker cell object intensity distributions were quantified using cellular objects positive for phalloidin and MitoTracker. Statistical analysis was performed using GraphPad Prism statistical software. Nonlinear regression was used as a curve fitting tool to determine compound efficacy.

Consider `CCCCCCCCCCCCCCCCCCNc1c(NCCOCCOCCOCCOCCOCCOCCOCCOCCOCCOCCOCCOCCOCCOCCOCCOCCOCCOCCOCCOCCOCCOC)c(=O)c1=O` [C18-Squaramide-PEG-1000, 3-((2,5,8,11,14,17,20,23,26,29,32,35,38,41,44,47,50,53,56,59,62,65-docosaoxa-heptahexacontan-67-yl)amino)-4-(octadecylamino)cyclobut-3-ene-1,2-dione], for which, in experiment [1], the “Tumor Total area: activity in comparison” value is “similarity in activity”.
With `CCCCCCCCCCCC(=O)O` [Lauric Acid], the “effect on cell viability, treatment vs control” value in the experiment with HCT-116 spheroids is “no difference between treatment and control”.
As for “polyethylene glycol octadecyl ether [C18-Ether-PEG-1000]”, the “number of cells in clusters vs no drug control” value in experiment [2] was “significantly reduced”. In addition, the effect on cells entry in experiment [3] (100 μM and 200 μM, 24 hours of incubation) was “drastic with both concentrations”. The “cell kill at lower vs higher concentration” value in experiment [3] (100 μM vs 200 μM, 24 hours) is on record as “less cell kill at the lower concentration”. Also, in experiment [3] (200 μM, 1-hour period), the “effect on a cluster of cells” value is “membrane disruption and cell death”. Also, the “time to cell fragmentation after dosing” value in experiment [3] (200 uM, single cell) was at most 60 min. Also, the “time post dosing to membrane disruption leading to cell death” value in the experiment with BXPC3 cells is at most 40 min. Moreover, in the experiment on BXPC3 cells (first study (FIG. 17A)), the “drop of cell mass” value stood at 3 fold and the “time post dosing of phase drop in dry mass” value lay in the range of 30 to 50 min. In the experiment with BXPC3 cells (repeat study (FIG. 17D)), the “cell mass decrease, factor” value is given as 2 and the “time of major phase drop after the addition of the drug” value was “about 25 minutes”. The compound further had a cell death in experiment [4] (50 μM) of 80%. This compound registered a cell death in experiment [4] (100 μM) of 100%. Moreover, in the experiment with HCT-116 cells, the MitoTracker intensities entry was “modest effect”, the “concentration at which total cell death / death of all the cells occurred” value came to 50 µM and the “effects on cell viability” value is listed as “strong effects on cell viability”.
As for “polyethylene glycol octadecyl ether [C18-Ether-PEG-5000]”, in experiment [1], the “DRAQ7 cell death assay: activity in comparison with standard of care” value is on record as “equal to standard of care” and the “Tumor Total area: activity in comparison” value is on record as “equal to standard of care”. The “cell destruction vs no drug control” value in experiment [3] (300 μM, 24 hours of incubation) is “completely destroyed”. Moreover, in experiment [3] (300 μM, after 19 hours), the “effect on existing cell mass / clusters” value was “dissociation of the accumulated mass and loss of cellular motility and death”. In addition, the kill kinetic in experiment [3] (BXPC3, 300 μM (Example 3)) came out at 19 h. Moreover, in the experiment on HCT-116 cells, the MitoTracker intensities entry is on record as “no effects” and the “concentration at which total cell death / death of all the cells occurred” value worked out at 100 µM.
